Measured values as given in ChEMBL document CHEMBL1127972 (Bioorg Med Chem Lett, 1994).
Substitutions are numbered along the chain they refer to.

Columns and labels:
[1] = target: T1, Muscarinic acetylcholine receptor M1 (Rattus norvegicus, UniProt P08482); test: In vitro binding affinity towards Muscarinic acetylcholine receptor M1 by the displacement of [3H]pirenzepine in rat cerebral cortical membranes; type: cell membranes, Membrane
T1 sequence (P08482 whole entry): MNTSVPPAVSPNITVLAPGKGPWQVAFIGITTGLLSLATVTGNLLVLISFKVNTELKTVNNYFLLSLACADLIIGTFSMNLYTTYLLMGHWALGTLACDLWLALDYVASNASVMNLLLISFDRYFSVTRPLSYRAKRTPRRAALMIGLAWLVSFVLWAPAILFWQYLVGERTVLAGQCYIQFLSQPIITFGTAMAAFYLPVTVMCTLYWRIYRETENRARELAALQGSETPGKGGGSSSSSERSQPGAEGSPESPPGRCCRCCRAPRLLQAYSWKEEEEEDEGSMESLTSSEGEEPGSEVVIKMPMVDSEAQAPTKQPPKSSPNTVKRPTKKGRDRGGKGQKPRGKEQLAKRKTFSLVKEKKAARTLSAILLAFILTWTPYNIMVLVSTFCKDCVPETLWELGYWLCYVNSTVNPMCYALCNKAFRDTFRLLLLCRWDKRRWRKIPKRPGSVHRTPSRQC

[2] = target: T1, Muscarinic acetylcholine receptor M1; test: In vitro binding affinity towards Muscarinic acetylcholine receptor M1 by the displacement of [3H]oxotremorine-M in rat brain membranes; type: cell membranes
[3] = target: T2, Muscarinic acetylcholine receptor M1 (Homo sapiens) (UniProt P11229); test: Percent stimulation of phospholipid hydrolysis in BHK cells transfected with human Muscarinic acetylcholine receptor M1 compared to maximal stimulation of carbachol at a dose of 100 uM; type: functional, cell-based
T2 sequence (whole entry): T1 sequence (P08482 whole entry) with V5A, S254T, S309P, K320R, G337A, V413I

SMILES	IC50 [1] [nM]	IC50 [2] [nM]	Stimulation [3] [%]
CCCCCOc1nsnc1C1=CCC(C)N(C)C1 (stereo not drawn)	5	9	18
CCCCOc1nsnc1C1=CCC(C)N(C)C1 (stereo not drawn)	8	9	9
CCC#CCCOc1nsnc1C1=CCC(C)N(C)C1 (stereo not drawn)	5	6	12
COc1nsnc1C1=CC(C)CN(C)C1 (stereo not drawn)	580	600	
CCCOc1nsnc1C1=CC(C)CN(C)C1 (stereo not drawn)	15	17	6
CCCCCCOc1nsnc1C1=CCC(C)N(C)C1 (stereo not drawn)	5	6	27
CCCOc1nsnc1C1=CCCN(C)C1		2	25
COc1nsnc1C1=CCCN(C)C1			7
COc1nsnc1C1=C(C)CCN(C)C1	1000	1000	
C=CCCCOc1nsnc1C1=CCC(C)N(C)C1 (stereo not drawn)	8	10	12
CCCCCCOc1nsnc1C1=CC2(C)CCCCC2(C)N(C)C1 (stereo not drawn)	1230	1000	
CCCCCCOc1nsnc1C1=CCCN(C)C1C (stereo not drawn)	48	83	
CCCCCCOc1nsnc1C1=C(C)CCN(C)C1	112	100	
CCOc1nsnc1C1=CCC(C)N(C)C1 (stereo not drawn)	24	11	10
CCCCCCOc1nsnc1C1=CC(C)CN(C)C1 (stereo not drawn)	7	14	12
CCCCCCOc1nsnc1C1=CCCN(C)C1			70
